Here are results for 16 compounds from patent US8318749B2, “Quinazoline derivatives as NK3 receptor antagonists” (Hoffmann-La Roche Inc., priority 2008, dated 2012).

The target of assay [1] is T1, recombinant human NK3 receptor (Homo sapiens, UniProt P29371).
T1 construct: expressed in transfected cells; host or cells: HEK293 cells (transient expression), membrane preparation
T1 sequence (P29371 1-465): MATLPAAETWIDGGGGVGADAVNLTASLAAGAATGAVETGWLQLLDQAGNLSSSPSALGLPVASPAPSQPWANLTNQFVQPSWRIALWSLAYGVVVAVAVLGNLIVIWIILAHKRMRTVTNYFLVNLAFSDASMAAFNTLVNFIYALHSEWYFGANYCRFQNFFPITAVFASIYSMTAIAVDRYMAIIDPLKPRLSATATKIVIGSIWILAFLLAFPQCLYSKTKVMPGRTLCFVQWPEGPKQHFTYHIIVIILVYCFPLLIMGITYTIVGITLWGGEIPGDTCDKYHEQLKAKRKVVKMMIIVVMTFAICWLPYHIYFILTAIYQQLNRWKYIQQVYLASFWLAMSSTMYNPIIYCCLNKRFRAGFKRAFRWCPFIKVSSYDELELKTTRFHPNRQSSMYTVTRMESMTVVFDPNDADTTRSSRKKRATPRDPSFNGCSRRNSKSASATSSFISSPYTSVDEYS
The assay can be described thus: [3H]SR142801 competition binding assay. The note with it: membrane from HEK293 cells transiently expressing recombinant human NK3 receptor; radioligand [3H]SR142801; 75 min at RT. The procedure:
[^3H]SR142801 Competition Binding Assay
hNK3 receptor binding experiment were performed using [^3H]SR142801 (Catalog No. TRK1035, specific activity: 74.0 Ci/mmol, Amersham, GE Healthcare UK limited, Buckinghamshire, UK) and membrane isolated from HEK293 cells transiently expressing recombinant human NK3 receptor. After thawing, the membrane homogenates were centrifuged at 48,000×g for 10 min at 4° C., the pellets were resuspended in the 50 mM Tris-HCl, 4 mM MnCl2, 1 μM phosphoramidon, 0.1% BSA binding buffer at pH 7.4 to a final assay concentration of 5 μg protein/well. […] At the end of the incubation, membranes were filtered onto unitfilter (96-well white microplate with bonded GF/C filter preincubated 1 h in 0.3% PEI+0.3% BSA, Packard BioScience, Meriden, Conn.) with a Filtermate 196 harvester (Packard BioScience) and washed 4 times with ice-cold 50 mM Tris-HCl, pH 7.4 buffer. Nonspecific binding was measured in the presence of 10 μM SB222200 for both radioligands. The radioactivity on the filter was counted (5 min) on a Packard Top-count microplate scintillation counter with quenching correction after addition of 45 μl of microscint 40 (Canberra Packard S.A., Zürich, Switzerland) and shaking for 1 h. Inhibition curves were fitted according to the Hill equation: y=100/(1+(x/IC50)^nH), where nH=slope factor using Excel-fit 4 software (Microsoft). IC50 values were derived from the inhibition curve and the affinity constant (Ki) values were calculated using the Cheng-Prussoff equation Ki=IC50/(1+[L]/KD) where [L] is the concentration of radioligand and KD is its dissociation constant at the receptor, derived from the saturation isotherm. All experiments were performed in duplicate and the mean±standard error (SEM) of the individual Ki values was calculated.

The conditions of assay [2]: phase II trial, cited from earlier work.

`COc1cc2nc(N3CCC(CC4CCC4)(C(=O)NC4Cc5ccccc5C4)CC3)nc(O)c2cc1OC` [Example 79, 4-Cyclobutylmethyl-1-(4-hydroxy-6,7-dimethoxy-quinazolin-2-yl)-piperidine-4-carboxylic acid indan-2-ylamide]: the inhibition constant (Ki) – broadly, the dissociation constant of the complex between target and ligand, obtained from inhibition or displacement – in assay [1] was 83 nM.
On the same count and under the same terms, next, `COc1cc2nc(N3CCC(CC4CCC4)(C(=O)N(C)Cc4ccccc4)CC3)nc(O)c2cc1OC` [Example 80, 4-Cyclobutylmethyl-1-(4-hydroxy-6,7-dimethoxy-quinazolin-2-yl)-piperidine-4-carboxylic acid benzyl-methyl-amide]: 7.6 nM.
`CC(C)Oc1ccc2nc(N3CCC(Cc4ccccc4)(C(=O)NCc4ccccc4)CC3)nc(O)c2c1` [Example 83, 4-Benzyl-1-(4-hydroxy-6-isopropoxy-quinazolin-2-yl)-piperidine-4-carboxylic acid benzylamide]: the Ki in assay [1] stood at 97.5 nM.
As for `COc1cc2nc(N3CCC(Cc4ccccc4)(C(=O)NCc4ccccc4)CC3)nc(O)c2cc1F` [Example 88, 4-Benzyl-1-(6-fluoro-4-hydroxy-7-methoxy-quinazolin-2-yl)-piperidine-4-carboxylic acid benzylamide], the inhibition constant Ki in assay [1] is 9.3 nM.
As to `O=C(NCc1ccccc1)C1(Cc2ccccc2)CCN(c2nc(O)c3ccc(OC(F)F)cc3n2)CC1` [Example 89, 4-Benzyl-1-(7-difluoromethoxy-4-hydroxy-quinazolin-2-yl)-piperidine-4-carboxylic acid benzylamide], the Ki in assay [1] is 11.5 nM.
Consider `COc1cc2nc(N3CCC(Cc4ccccc4)(C(=O)NCc4ccccc4)CC3)nc(O)c2cc1C` [Example 90, 4-Benzyl-1-(4-hydroxy-7-methoxy-6-methyl-quinazolin-2-yl)-piperidine-4-carboxylic acid benzylamide], for which, in assay [1], the inhibition constant (Ki) was 13.3 nM.
Consider `COc1cc2nc(N3CCC(Cc4ccccc4)(C(=O)NCc4ccccc4)CC3)nc(O)c2cc1OC(C)C` [Example 91, 4-Benzyl-1-(4-hydroxy-6-isopropoxy-7-methoxy-quinazolin-2-yl)-piperidine-4-carboxylic acid benzylamide], for which, in assay [1], the Ki was determined as 5.4 nM.
On the same count and under the same terms, as for `COc1cc2c(O)nc(N3CCC(Cc4ccccc4)(C(=O)NCc4ccccc4)CC3)nc2cc1OC(C)C` [Example 92, 4-Benyzl-1-(4-hydroxy-7-isopropoxy-6-methoxy-quinazolin-2-yl)-piperidine-4-carboxylic acid benzylamide], the figure is 21.5 nM.
The same measure, in the same setting: as for `COc1cc2nc(N3CCC(Cc4ccccc4)(C(=O)NCc4ccccc4)CC3)nc(O)c2cc1Cl` [Example 93, 4-Benzyl-1-(6-chloro-4-hydroxy-7-methoxy-quinazolin-2-yl)-piperidine-4-carboxylic acid benzylamide], the figure is 9.2 nM; as for `CCOc1cc2nc(N3CCC(Cc4ccccc4)(C(=O)NCc4ccccc4)CC3)nc(O)c2cc1OC(F)F` [Example 94, 4-Benzyl-1-(6-difluoromethoxy-7-ethoxy-4-hydroxy-quinazolin-2-yl)-piperidine-4-carboxylic acid benzylamide], 8.3 nM; as for `COc1ccc2c(O)nc(N3CCC(Cc4ccccc4)(C(=O)NCc4ccccc4)CC3)nc2c1` [Example 95, 4-Benzyl-1-(4-hydroxy-7-methoxy-quinazolin-2-yl)-piperidine-4-carboxylic acid benzylamide], 5.1 nM.
On the same count and under the same terms, next, `CC(C)Oc1ccc2c(O)nc(N3CCC(Cc4ccccc4)(C(=O)NCc4ccccc4)CC3)nc2c1` [Example 96, 4-Benzyl-1-(4-hydroxy-7-isopropoxy-quinazolin-2-yl)-piperidine-4-carboxylic acid benzylamide]: 11.2 nM.
Take `COc1cc2nc(N3CCC(Cc4ccccc4)(C(=O)NCc4ccccc4)CC3)nc(O)c2cc1C#N` [Example 97, 4-Benzyl-1-(6-cyano-4-hydroxy-7-methoxy-quinazolin-2-yl)-piperidine-4-carboxylic acid benzylamide]: the Ki in assay [1] was determined as 15.8 nM.
For `O=C(NCc1ccccc1)C1(Cc2ccccc2)CCN(c2nc(O)c3ccc(C(F)(F)F)cc3n2)CC1` [Example 98, 4-Benzyl-1-(4-hydroxy-7-trifluoromethyl-quinazolin-2-yl)-piperidine-4-carboxylic acid benzylamide], the Ki in assay [1] is 6.1 nM.
Same read-out and setting: next, `O=C(NCc1ccccc1)C1(Cc2ccccc2)CCN(c2nc(O)c3ccc(OC(F)(F)F)cc3n2)CC1` [Example 99, 4-Benzyl-1-(4-hydroxy-7-trifluoromethoxy-quinazolin-2-yl)-piperidine-4-carboxylic acid benzylamide]: 4.9 nM.
Regarding `CC(=O)N(C)C1(c2ccccc2)CCN(CCC[C@]2(c3ccc(Cl)c(Cl)c3)CCCN(C(=O)c3ccccc3)C2)CC1` [SR 142,801, Osanetant], the “activity on positive symptoms of schizophrenia” value in assay [2] (altered behaviour, delusion, hallucinations, extreme emotions, excited motor activity, incoherent speech) is recorded as “active”. In addition, the “activity in the treatment of negative symptoms” value in assay [2] (depression, anhedonia, social isolation or memory and attention deficits) was “inactive”.
